Laboratory results: patent US20110046107A1, “SULFONYL-SUBSTITUTED CARBAPENEM COMPOUNDS” (priority 2007, published 2011)
In brackets after ≈: the same amount, converted by molar mass. Read-outs that look alike come from different tables or passages of the source.

What was measured:
Assay in all cases: In vitro antibacterial activity, agar dilution method (clinical isolates)
Format in all cases: cell-based
[1] = tested on: Citrobacter freundii; conditions: clinically isolated strains, Gram-negative
Description: (§1) Bacterial strains for test: All the bacterial strains are clinical isolates and purchased from public organizations. methicillin-sensitive staphylococcus aureus (MS SA), methicillin-resistant staphylococcus aureus (MRSA), methicillin-sensitive staphylococcus epidermidis (MSSE), methicillin-resistant staphylococcus epidermidis (MRSE), streptococcus pyogenes, penicillin-sensitive streptococcus pneumoniae (PSSP), penicillin-resistant streptococcus pneumoniae (PRSP), Escherichia coli, Citrobacter freundii, Enterobacter cloacae, Hemophilus influenza, Klebsiella pneumonia (producing ESBL), Morganella morganii, Proteus mirabilis, Serratia marcescens, and Pseudomonas aeruginosa.
(§2) Drugs to be tested: compounds of the invention prepared in the examples; the chemical names, structural formulae, preparation materials, and preparation methods are provided in the preparation examples of the compounds;
(§3) Meropenem (Meropenem for injection), Ertapenem (Ertapenem for injection), and Doripenem (Doripenem for injection) commercially available
(§4) Experimental method: the agar dilution method, by reference to Methodology of Pharmacological Experiment (XU Shuyun et al, published by the Peoples Medical Publishing House, 1st Edition, August, 1982; 3rd Edition, 5th printing, January 2002, p 1659-1660).

[2] = tested on: Enterobacter cloacae; conditions: read-out: MIC90 Enterobacter cloacae
Description: as §1, §2, §3, §4

[3] = tested on: Escherichia coli; conditions: clinically isolated strains, Gram-negative, read-out: MIC90 E. coli
Description: as §1, §2, §3, §4

[4] = tested on: Hemophilus influenza; conditions: read-out: MIC90 Hemophilus influenza
Description: as §1, §2, §3, §4

[5] = tested on: Klebsiella pneumonia (producing ESBL); conditions: Klebsiella pneumoniae, read-out: MIC90 Klebsiella pneumonia
Description: as §1, §2, §3, §4

[6] = tested on: Morganella morganii; conditions: clinically isolated strains, Gram-negative
Description: as §1, §2, §3, §4

[7] = tested on: Proteus mirabilis; conditions: read-out: MIC90 Proteus mirabilis
Description: as §1, §2, §3, §4

[8] = tested on: Pseudomonas aeruginosa; conditions: clinically isolated strains, Gram-negative
Description: as §1, §2, §3, §4

[9] = tested on: Serratia marcescens; conditions: read-out: MIC90 Serratia marcescens
Description: as §1, §2, §3, §4

[10] = tested on: methicillin-resistant staphylococcus aureus (MRSA); conditions: clinically isolated strains, Gram-positive, read-out: MIC90 S. aureus MRSA
Description: as §1, §2, §3, §4

[11] = tested on: methicillin-resistant staphylococcus epidermidis (MRSE); conditions: clinically isolated strains, Gram-positive, read-out: MIC90 S. epidermidis MRSE
Description: as §1, §2, §3, §4

[12] = tested on: methicillin-sensitive staphylococcus aureus (MSSA); conditions: read-out: MIC90 S. aureus MSSA
Description: as §1, §2, §3, §4

[13] = tested on: methicillin-sensitive staphylococcus epidermidis (MSSE); conditions: clinically isolated strains, Gram-positive, agar dilution, read-out: MIC90 S. epidermidis MSSE
Description: as §1, §2, §3, §4

[14] = tested on: penicillin-resistant streptococcus pneumoniae (PRSP); conditions: clinically isolated strains, Gram-positive, read-out: MIC90 S. pneumoniae PRSP
Description: as §1, §2, §3, §4

[15] = tested on: penicillin-sensitive streptococcus pneumoniae (PSSP); conditions: clinically isolated strains, Gram-positive, read-out: MIC90 S. pneumoniae PSSP
Description: as §1, §2, §3, §4

[16] = tested on: streptococcus pyogenes; conditions: clinically isolated strains, Gram-positive, read-out: MIC90 S. pyogenes
Description: as §1, §2, §3, §4

[17] = clinically isolated strains, Gram-negative, agar dilution
[18] = clinically isolated strains (producing ESBL), Gram-negative, agar dilution
[19] = clinically isolated strains, Gram-positive, agar dilution

Compound | MIC90 [1] | MIC90 [3] | MIC90 [4] | MIC90 [5, 18] | MIC90 [6] | MIC90 [7, 17] | MIC90 [8] | MIC90 [9] | MIC90 [10] | MIC90 [11] | MIC90 [12, 19] | MIC90 [13] | MIC90 [14] | MIC90 [15] | MIC90 [16] | MIC90 [2] | MIC90 [4, 17] | MIC90 [7] | also measured
C[C@@H](O)[C@H]1C(=O)N2C(C(=O)[O-])=C(SC3CN(S(=O)(=O)NCC(O)CN)C3)[C@H](C)[C@H]12.[Na+] (stereo partly shown) [sodium salt of compound 9] | 0.032 µg/mL | 0.016 µg/mL | 0.125 µg/mL | 0.063 µg/mL | 0.032 µg/mL | 0.63 µg/mL | 16 µg/mL | 0.125 µg/mL | 16 µg/mL | 8 µg/mL | 0.032 µg/mL | 0.063 µg/mL | 0.5 µg/mL | 0.008 µg/mL | 8 ng/mL |  |  |  | MIC90 [2, 17]: 0.063 µg/mL
CCN(CC)S(=O)(=O)N1CC(SC2=C(C(=O)O)N3C(=O)[C@H]([C@@H](C)O)[C@H]3[C@H]2C)C1 [Compound 7, (4R,5S,6S)-3-[1-(N,N-diethylaminosulfonyl)-azetidin-3-yl]thio-6-[(1R)-1-hydroxyethyl]-4-methyl-7-oxo-1-aza-bicyclo-[3.2.0]hept-2-ene-2-carboxylic acid] | 0.016 µg/mL (≈ 0.0369 µM) | 0.016 µg/mL (≈ 0.0369 µM) |  | 0.063 µg/mL (≈ 0.145 µM) | 0.063 µg/mL (≈ 0.145 µM) |  | 8 µg/mL (≈ 18.5 µM) |  | 8 µg/mL (≈ 18.5 µM) | 8 µg/mL (≈ 18.5 µM) | 0.063 µg/mL (≈ 0.145 µM) | 0.063 µg/mL (≈ 0.145 µM) | 0.5 µg/mL (≈ 1.15 µM) | 0.008 µg/mL (≈ 0.0185 µM) | 4 ng/mL (≈ 0.00923 µM) | 0.125 µg/mL (≈ 0.288 µM) | 0.125 µg/mL (≈ 0.288 µM) | 0.125 µg/mL (≈ 0.288 µM) | MIC90 [9, 17]: 0.063 µg/mL (≈ 0.145 µM)
C[C@@H](O)[C@H]1C(=O)N2C(C(=O)O)=C(S[C@H]3CCN(S(N)(=O)=O)C3)[C@H](C)[C@H]12 [Compound 2, (4R,5S,6S)-3-[(3S)-N-aminosulfonyl-pyrrolidin-3-yl]thio-6-[(1R)-1-hydroxyethyl]-4-methyl-7-oxo-1-aza-bicyclo-[3.2.0]hept-2-ene-2-carboxylic acid] | 0.032 µg/mL (≈ 0.0817 µM) | 0.016 µg/mL (≈ 0.0409 µM) | 0.125 µg/mL (≈ 0.319 µM) |  | 0.063 µg/mL (≈ 0.161 µM) | 0.63 µg/mL (≈ 1.61 µM) | 8 µg/mL (≈ 20.4 µM) | 0.125 µg/mL (≈ 0.319 µM) | 16 µg/mL (≈ 40.9 µM) | 8 µg/mL (≈ 20.4 µM) | 0.063 µg/mL (≈ 0.161 µM) | 0.063 µg/mL (≈ 0.161 µM) | 0.5 µg/mL (≈ 1.28 µM) | 0.016 µg/mL (≈ 0.0409 µM) | 8 ng/mL (≈ 0.0204 µM) | 0.125 µg/mL (≈ 0.319 µM) |  |  | MIC90 [5]: 0.125 µg/mL (≈ 0.319 µM)
C[C@@H](O)[C@H]1C(=O)N2C(C(=O)O)=C(SC3CN=CN(S(N)(=O)=O)C3)[C@H](C)[C@H]12 (stereo partly drawn) [Compound 4, (4R,5S,6S)-3-[1(4H)-aminosulfonyl-5,6-dihydropyrimidin-5-yl]-thio-6-[(1R)-1-hydroxyethyl]-4-methyl-7-oxo-1-aza-bicyclo-[3.2.0]hept-2-ene-2-carboxylic acid] | 0.032 µg/mL (≈ 0.0791 µM) | 0.032 µg/mL (≈ 0.0791 µM) |  | 0.063 µg/mL (≈ 0.156 µM) | 0.063 µg/mL (≈ 0.156 µM) |  | 32 µg/mL (≈ 79.1 µM) | 0.125 µg/mL (≈ 0.309 µM) | 8 µg/mL (≈ 19.8 µM) | 16 µg/mL (≈ 39.6 µM) |  | 0.063 µg/mL (≈ 0.156 µM) | 1 µg/mL (≈ 2.47 µM) | 0.016 µg/mL (≈ 0.0396 µM) | 16 ng/mL (≈ 0.0396 µM) | 0.125 µg/mL (≈ 0.309 µM) | 0.125 µg/mL (≈ 0.309 µM) | 0.125 µg/mL (≈ 0.309 µM) | MIC90 [12]: 0.125 µg/mL (≈ 0.309 µM)
